Experimental data as given in US6420172B1, “Method for inducing tumor immunity” (TIB Company, LLC, priority 1992, dated 2002).

Experiments:
tumor cells = settings: literature reports; cited from earlier work
transfected C6 cells = test: 3H-thymidine incorporation into transfected C6 cells in serum-free medium; assay type: cell-based, rat; settings: 48 hours, 50 μg/ml
Source text: The mechanism underlying the loss of tumorigenicity for the antisense IGF-1 transfectants is linked to enhanced immunogenicity. Applicant notes a striking infiltration of mononuclear cells surrounding the injected C6 transfected cells in vivo. No such infiltrates ere apparent for the parental (IGF-I positive) cells in he tumors formed in vivo. […] This possibility is substantiated by the examples provided below. This immunological component may exist together with an antiproliferative effect. C6 cellular proliferation is likely to involve factors in addition to IGF-1, however, since the rate of incorporation of ^3H-thymidine into transfected C6 cells cultured for 48 hours in serum-free medium was unaffected by the presence of ZnSO^4 or IGF-I protein (50 μg/ml) in the culture medium (data not shown).

Molecule | tumor development in vivo (tumor cells) | rate of incorporation of 3H-thymidine in the presence of IGF-I protein (transfected C6 cells)
C[C@@H](O)[C@@H]1NC(=O)[C@H](CCCCN)NC(=O)[C@@H](Cc2c[nH]c3ccccc23)NC(=O)[C@H](Cc2ccccc2)NC(=O)[C@@H](NC(=O)[C@H](N)Cc2ccccc2)CSSC[C@@H](C(=O)N[C@H](CO)[C@@H](C)O)NC1=O [octreotide] | not blocked | 
IGF-I protein: Insulin-like growth factor I protein added to the culture medium |  | unaffected
